Measured values: US20050004092A1, “Penem derivatives and antimicrobial agent containing the same” (DAIICHI SUNTORY PHARMA CO., LTD., priority 1995, published 2005)
Values after ≈ are worked out from the molar mass of the structure shown. Where two headings read alike, the source gives them in different places. One block for each compound: values may come before it.

Key:
Assay in all cases: antibacterial activity (MIC), standard in vitro dilution test
[1] = system: MRSA 31 high-resist. (IPM resist.); type: cell-based, Staphylococcus aureus; details: Staphylococcus aureus, MRSA, read-out: MIC, MRSA 31 high-resist. (IPM resist.)
Source text: (§1) With respect to certain compounds (I) of the present invention, their general antibacterial activities and their antibacterial activities (MIC) against various methicillin-resistant strains of Staphylococcus aureus (methicillin-resistant Staphylococcus aureus: MRSA) were investigated. The results will be shown next.
(§2) Of the investigations, the general antibacterial activities were investigated by a standard in vitro dilution test.
(§3) As test bacteria, Staphylococcus aureus 209P JC-1, Escherichia coli NIHJ JC-2 and MRSAs were used.

[2] = system: MRSA 33 high-resist. (IPM resist.); type: cell-based, Staphylococcus aureus; details: Staphylococcus aureus, MRSA, read-out: MIC, MRSA 33 high-resist. (IPM resist.)
Source text: as §1, §2, §3

[3] = system: Escherichia coli NIHJ JC-2 strain; type: cell-based; details: Escherichia coli
Source text: as §1, §2, §3

[4] = system: Staphylococcus aureus 209P JC-1 strain; type: cell-based; details: Staphylococcus aureus, 209P, read-out: MIC, Staphylococcus aureus 209P JC-1 strain
Source text: as §1, §2, §3

[5] = test bacterium strain 10^5 cfu/ml
[6] = NIHJJC2, test bacterium strain 10^5 cfu/ml, read-out: MIC, Escherichia coli NIHJ JC-2 strain

Structure (SMILES): CC[C@H](O)[C@@H]1C(=O)N2C(C(=O)O)=C(S[C@H]3CCN(C(C)C(=O)c4ccccc4)C3)S[C@H]12 (stereo partly shown) [Ex. 117]
MIC [1]: 6.25 µg/mL (≈ 13.5 µM)
MIC [2]: 6.25 µg/mL (≈ 13.5 µM)
MIC ([3]; NIHJJC2, read-out: MIC, Escherichia coli NIHJ JC-2 strain): 1.56 µg/mL (≈ 3.37 µM)
MIC [4]: 0.1 µg/mL (≈ 0.216 µM)

Structure (SMILES): CC[C@H](O)[C@@H]1C(=O)N2C(C(=O)O)=C(SCCN(C)CC(=O)c3ccccc3)S[C@H]12 [Ex. 142, (5R,6R)-6-((S)-1-hydroxypropyl)-2-(2-(N-methyl-N-phenacylamino)ethyl)thiopenem-3-carboxylic acid]
MIC [1, 5]: 6.25 µg/mL (≈ 14.3 µM)
MIC [2, 5]: 6.25 µg/mL (≈ 14.3 µM)
MIC [3, 6]: 0.78 µg/mL (≈ 1.79 µM)
MIC [4, 5]: 0.1 µg/mL (≈ 0.229 µM)

Structure (SMILES): CC[C@H](O)[C@@H]1C(=O)N2C(C(=O)O)=C(S[C@H]3CCN(CCCC(=O)c4ccccc4)C3)S[C@H]12 [Ex. 215]
MIC [1, 5]: 6.25 µg/mL (≈ 13.1 µM)
MIC [2, 5]: 6.25 µg/mL (≈ 13.1 µM)
MIC [3, 6]: 3.13 µg/mL (≈ 6.57 µM)
MIC [4, 5]: 0.1 µg/mL (≈ 0.21 µM)

Structure (SMILES): CC[C@H](O)[C@@H]1C(=O)N2C(C(=O)O)=C(S[C@H]3CCN(Cc4ccccn4)C3)S[C@H]12 [Ex. 123, (5R,6R)-6-((S)-1-hydroxypropyl)-2-((S)-1-(2-pyridylmethyl)pyrrolidin-3-yl)thiopenem-3-carboxylic acid]
MIC [1, 5]: 6.25 µg/mL (≈ 14.8 µM)
MIC [2, 5]: 6.25 µg/mL (≈ 14.8 µM)
MIC [3, 6]: 3.13 µg/mL (≈ 7.43 µM)
MIC [4, 5]: 0.2 µg/mL (≈ 0.474 µM)

Structure (SMILES): CC[C@H](O)[C@@H]1C(=O)N2C(C(=O)O)=C(S[C@H]3CCN(c4ccncc4)C3)S[C@H]12 [Ex. 203]
MIC [1, 5]: 3.13 µg/mL (≈ 7.68 µM)
MIC [2, 5]: 3.13 µg/mL (≈ 7.68 µM)
MIC [3, 6]: 0.78 µg/mL (≈ 1.91 µM)
MIC [4, 5]: 0.05 µg/mL (≈ 0.123 µM)

Structure (SMILES): CC[C@H](O)[C@@H]1C(=O)N2C(C(=O)O)=C(SCCC(=O)Nc3ccccc3)S[C@H]12 [Ex. 134, (5R,6R)-6-((S)-1-hydroxypropyl)-2-(2-phenylaminocarbonylethyl)thiopenem-3-carboxylic acid]
MIC [1, 5]: 6.25 µg/mL (≈ 15.3 µM)
MIC [2, 5]: 6.25 µg/mL (≈ 15.3 µM)
MIC [3, 6]: 12.5 µg/mL (≈ 30.6 µM)
MIC [4, 5]: 0.39 µg/mL (≈ 0.955 µM)

Structure (SMILES): CC[C@H](O)[C@@H]1C(=O)N2C(C(=O)O)=C(S[C@H]3CCN(C[C@@H](O)c4ccccc4)C3)S[C@H]12 [Ex. 107, (5R,6R)-6-((S)-1-hydroxypropyl)-2-(1-((S)-2-hydroxy-2-phenylethyl)pyrrolidin-3-yl)thiopenem-3-carboxylic acid]
MIC [1, 5]: 6.25 µg/mL (≈ 13.9 µM)
MIC [2, 5]: 6.25 µg/mL (≈ 13.9 µM)
MIC [3, 6]: 1.56 µg/mL (≈ 3.46 µM)
MIC [4, 5]: 0.1 µg/mL (≈ 0.222 µM)

Structure (SMILES): CC[C@H](O)[C@@H]1C(=O)N2C(C(=O)O)=C(SCCn3cccc3)S[C@H]12 [Ex. 147, (5R,6R)-6-((S)-1-hydroxypropyl)-2-(2-(1-pyrrolyl)ethyl)thiopenem-3-carboxylic acid]
MIC [1, 5]: 3.13 µg/mL (≈ 8.83 µM)
MIC [2, 5]: 3.13 µg/mL (≈ 8.83 µM)
MIC [3, 6]: 6.25 µg/mL (≈ 17.6 µM)
MIC [4, 5]: 0.2 µg/mL (≈ 0.564 µM)

Structure (SMILES): CC[C@H](O)[C@@H]1C(=O)N2C(C(=O)O)=C(SCc3nc4ccccc4[nH]3)SC12 (stereo partly shown) [Ex. 205]
MIC [1, 5]: 3.13 µg/mL (≈ 8 µM)
MIC [2, 5]: 3.13 µg/mL (≈ 8 µM)
MIC [3, 6]: 3.13 µg/mL (≈ 8 µM)
MIC [4, 5]: 0.1 µg/mL (≈ 0.255 µM)

Structure (SMILES): CC[C@H](O)[C@@H]1C(=O)N2C(C(=O)O)=C(S[C@H]3CCN(CC(=O)c4ccc5c(c4)OCO5)C3)S[C@H]12 [Ex. 207]
MIC [1, 5]: 6.25 µg/mL (≈ 12.7 µM)
MIC [2, 5]: 6.25 µg/mL (≈ 12.7 µM)
MIC [3, 6]: 0.39 µg/mL (≈ 0.792 µM)
MIC [4, 5]: 0.1 µg/mL (≈ 0.203 µM)

More lines, now with the values ahead:

MIC [1, 5]: 3.13 µg/mL (≈ 6.77 µM)
MIC [2, 5]: 1.56 µg/mL (≈ 3.37 µM)
MIC [3, 6]: 12.5 µg/mL (≈ 27 µM)
MIC [4, 5]: 0.05 µg/mL (≈ 0.108 µM)
Structure (SMILES): CC[C@H](O)[C@@H]1C(=O)N2C(C(=O)O)=C(S[C@H]3CCN(c4ccc(NC(C)=N)cc4)C3)S[C@H]12 [Ex. 257]

MIC [1, 5]: 3.13 µg/mL (≈ 8.76 µM)
MIC [2, 5]: 3.13 µg/mL (≈ 8.76 µM)
MIC [3, 6]: 0.78 µg/mL (≈ 2.18 µM)
MIC [4, 5]: 0.1 µg/mL (≈ 0.28 µM)
Structure (SMILES): CC[C@H](O)[C@@H]1C(=O)N2C(C(=O)O)=C(SC3CN(C(C)=N)C3)S[C@H]12 [Ex. 255]

MIC [1, 5]: 6.25 µg/mL (≈ 16 µM)
MIC [2, 5]: 6.25 µg/mL (≈ 16 µM)
MIC [3, 6]: 0.78 µg/mL (≈ 2 µM)
MIC [4, 5]: 0.1 µg/mL (≈ 0.257 µM)
Structure (SMILES): CC[C@H](O)[C@@H]1C(=O)N2C(C(=O)O)=C(S[C@H]3CCN(C(=N)CF)C3)S[C@H]12 [Ex. 253]

MIC [1, 5]: 3.13 µg/mL (≈ 8.88 µM)
MIC [2, 5]: 3.13 µg/mL (≈ 8.88 µM)
MIC [3, 6]: 3.13 µg/mL (≈ 8.88 µM)
MIC [4, 5]: 0.2 µg/mL (≈ 0.567 µM)
Structure (SMILES): CC[C@H](O)[C@@H]1C(=O)N2C(C(=O)O)=C(SCc3ccncc3)S[C@H]12 [Ex. 224]

MIC [1, 5]: 1.56 µg/mL (≈ 3.71 µM)
MIC [2, 5]: 1.56 µg/mL (≈ 3.71 µM)
MIC [3, 6]: 50 µg/mL (≈ 119 µM)
MIC [4, 5]: 0.1 µg/mL (≈ 0.238 µM)
Structure (SMILES): CC[C@H](O)[C@@H]1C(=O)N2C(C(=O)O)=C(SCc3ccc(Cl)c(Cl)c3)S[C@H]12 [Ex. 236]

MIC [1, 5]: 6.25 µg/mL (≈ 13.1 µM)
MIC [2, 5]: 6.25 µg/mL (≈ 13.1 µM)
MIC [3, 6]: 25 µg/mL (≈ 52.5 µM)
MIC [4, 5]: 0.2 µg/mL (≈ 0.42 µM)
Structure (SMILES): CC[C@H](O)[C@@H]1C(=O)N2C(C(=O)O)=C(SC3CCN(C(=N)NC(=O)c4ccccc4)C3)S[C@H]12 (stereo partly shown) [Ex. 218]
